Counter-ions that a name gives are not always drawn.
Structure (SMILES) | melting point
CCCCc1nc2c(N)nc3ccc(OCCC4CCN(S(C)(=O)=O)CC4)cc3c2n1C [Example 41, 2-Butyl-8-{2-[1-(methanesulfonyl)piperidin-4-yl]ethoxy}-1-methyl-1H-imidazo[4,5-c]quinolin-4-amine] | 198 to 199.5 °C
CCOCc1nc2c(N)nc3cc(OC4CCN(C(=O)OC(C)(C)C)CC4)ccc3c2n1CC1COC(C)(C)O1 (stereo not shown) [Example 374, tert-Butyl 4-{[4-amino-1-[(2,2-dimethyl-1,3-dioxolan-4-yl)methyl]-2-(ethoxymethyl)-1H-imidazo[4,5-c]quinolin-7-yl]oxy}piperidine-1-carboxylate] | 158 to 159 °C
CCCn1c(COCC)nc2c(N)nc3ccc(OCCCN4CCCC4=O)cc3c21 [Example 405, 1-(3-{[4-Amino-2-(ethoxymethyl)-1-propyl-1H-imidazo[4,5-c]quinolin-8-yl]oxy}propyl)pyrrolidin-2-one] | 188.5 to 190 °C
CCOCc1nc2c(N)nc3cc(OCCN)ccc3c2n1CC(O)CO (stereo not shown) (as salt: hydrochloride) [Example 373, 3-[4-Amino-7-(2-aminoethoxy)-2-(ethoxymethyl)-1H-imidazo[4,5-c]quinolin-1-yl]propane-1,2-diol dihydrochloride] | 221 to 223 °C
COCCc1nc2c(N)nc3cc(OCC4OCCO4)ccc3c2n1CC(C)(C)O [Example 564, 1-[4-Amino-7-(1,3-dioxolan-2-ylmethoxy)-2-(2-methoxyethyl)-1H-imidazo[4,5-c]quinolin-1-yl]-2-methylpropan-2-ol] | 131 to 136 °C
CCCn1c(COCC)nc2c(N)nc3ccc(OC(=O)N4CCOCC4)cc3c21 [Example 570, 4-Amino-2-(ethoxymethyl)-1-propyl-1H-imidazo[4,5-c]quinolin-8-yl morpholine-4-carboxylate] | 193 to 196 °C
CCCc1nc2c(N)nc3cc(OC4CCOC4)ccc3c2n1CC(C)C (stereo not shown) [Example 55, 1-(2-Methylpropyl)-2-propyl-7-(tetrahydrofuran-3-yloxy)-1H-imidazo[4,5-c]quinolin-4-amine] | 178 to 182 °C
CCCCc1nc2c(N)nc3ccc(OCCC4CCNCC4)cc3c2n1C [Example 38, 2-Butyl-1-methyl-8-(2-piperidin-4-ylethoxy)-1H-imidazo[4,5-c]quinolin-4-amine] | 210 to 212 °C
CCOCc1nc2c(N)nc3cc(OC4CCN(C(=O)OC(C)(C)C)CC4)ccc3c2n1CC(C)(C)O [Example 563, tert-Butyl 4-{[4-amino-2-(ethoxymethyl)-1-(2-hydroxy-2-methylpropyl)-1H-imidazo[4,5-c]quinolin-7-yl]oxy}piperidine-1-carboxylate] | 214 to 215 °C (dec.)
Cc1nc2c(N)nc3cc(OCCNC(=O)N4CCOCC4)ccc3c2n1CC(C)C [Example 19, N-(2-{[4-Amino-2-methyl-1-(2-methylpropyl)-1H-imidazo[4,5-c]quinolin-7-yl]oxy}ethyl)morpholine-4-carboxamide] | 215 to 219 °C (dec.)
CCc1nc2c(N)nc3cc(OS(C)(=O)=O)ccc3c2n1CCOc1ccccc1 (as salt: methanesulfonate) [Example 367, 4-Amino-2-ethyl-1-(2-phenoxyethyl)-1H-imidazo[4,5-c]quinolin-7-yl methanesulfonate] | 213 to 214.5 °C
CCOCc1nc2c(N)nc3cc(OCCCCCCNC(=O)NC(C)C)ccc3c2n1CC(C)(C)NC(=O)NC(C)C [Example 369, N-(2-{4-Amino-2-(ethoxymethyl)-7-[(6-{[(isopropylamino)carbonyl]amino}hexyl)oxy]-1H-imidazo[4,5-c]quinolin-1-yl}-1,1-dimethylethyl)-N′-isopropylurea] | 205 to 209 °C
CCCn1c(COCC)nc2c(N)nc3ccc(OCCNC(=O)N4CCOCC4)cc3c21 [Example 4, N-(2-{[4-Amino-2-(ethoxymethyl)-1-propyl-1H-imidazo[4,5-c]quinolin-8-yl]oxy}ethyl)morpholine-4-carboxamide] | 203 to 208 °C
CCCc1nc2c(N)nc3cc(OCCCN4CCCS4(=O)=O)ccc3c2n1CC(C)C [Example 13, 7-[3-(1,1-Dioxidoisothiazolidin-2-yl)propoxy]-1-(2-methylpropyl)-2-propyl-1H-imidazo[4,5-c]quinolin-4-amine] | 142 to 144 °C
CCCn1c(COCC)nc2c(N)nc3ccc(OCCNC(=O)C(C)C)cc3c21 (as salt: hydrochloride) [Example 5, N-(2-{[4-Amino-2-(ethoxymethyl)-1-propyl-1H-imidazo[4,5-c]quinolin-8-yl]oxy}ethyl)-2-methylpropanamide hydrochloride] | 240 to 242 °C
CCCn1c(COCC)nc2c(N)nc3ccc(OCC(=O)N4CCS(=O)(=O)CC4)cc3c21 [Example 565, 8-[2-(1,1-Dioxidothiomorpholin-4-yl)-2-oxoethoxy]-2-(ethoxymethyl)-1-propyl-1H-imidazo[4,5-c]quinolin-4-amine] | 223 to 225 °C
CCCc1nc2c(N)nc3cc(OCCCNS(=O)(=O)CCc4cccc5ccccc45)ccc3c2n1CC(C)C [Example 14, N-(3-{[4-Amino-1-(2-methylpropyl)-2-propyl-1H-imidazo[4,5-c]quinolin-7-yl]oxy}propyl)-2-(1-naphthyl)ethanesulfonamide] | 164 to 168 °C
CCCn1c(COCC)nc2c(N)nc3cc(OC4CCN(C(C)=O)CC4)ccc3c21 [Example 560, 7-[(1-Acetylpiperidin-4-yl)oxy]-2-(ethoxymethyl)-1-propyl-1H-imidazo[4,5-c]quinolin-4-amine] | 178 to 179.5 °C
CCc1nc2c(N)nc3cc(OCC(=O)C(C)(C)C)ccc3c2n1CCOc1ccccc1 [Example 52, 1-[4-Amino-2-ethyl-1-(2-phenoxyethyl)-1H-imidazo[4,5-c]quinolin-7-yloxy]-3,3-dimethylbutan-2-one] | 238 to 239 °C (dec.)

More lines, now with the values ahead:

melting point | Structure (SMILES)
178 to 180 °C | CCCc1nc2c(N)nc3cc(OCC(=O)c4ccccc4)ccc3c2n1CC(C)C [Example 1, 2-(4-Amino-1-(2-methylpropyl)-2-propyl-1H-imidazo[4,5-c]quinolin-7-yloxy)-1-phenylethanone]
194 to 198 °C | CCCc1nc2c(N)nc3cc(OCCCNC(=O)NS(=O)(=O)c4ccc(F)cc4)ccc3c2n1CC(C)C [Example 21, N-{[(3-{[4-Amino-1-(2-methylpropyl)-2-propyl-1H-imidazo[4,5-c]quinolin-7-yl]oxy}propyl)amino]carbonyl}-4-fluorobenzenesulfonamide]
207 to 208.5 °C | CCCn1c(CCOC)nc2c(N)nc3cc(OC4CCN(C(N)=O)CC4)ccc3c21 [Example 391, 4-{[4-Amino-2-(2-methoxyethyl)-1-propyl-1H-imidazo[4,5-c]quinolin-7-yl]oxy}piperidine-1-carboxamide]
256.8 to 257.2 °C | CCCCc1nc2c(N)nc3ccc(OCC(=O)N4CCOCC4)cc3c2n1C [Example 32, 2-Butyl-1-methyl-8-(2-morpholin-4-yl-2-oxoethoxy)-1H-imidazo[4,5-c]quinolin-4-amine]
173 to 174 °C | CCCn1c(COC)nc2c(N)nc3ccc(OCCCOC(=O)N4CCOCC4)cc3c21 [Example 555, 3-{[4-Amino-2-(methoxymethyl)-1-propyl-1H-imidazo[4,5-c]quinolin-8-yl]oxy}propyl morpholine-4-carboxylate]
165 to 167 °C | CCc1nc2c(N)nc3cc(OCCNC(C)=O)ccc3c2n1CC1CCOCC1 [Example 652, N-(2-{[4-Amino-2-ethyl-1-(tetrahydro-2H-pyran-4-ylmethyl)-1H-imidazo[4,5-c]quinolin-7-yl]oxy}ethyl)acetamide]
194 to 196 °C | CCCn1c(COC)nc2c(N)nc3ccc(OCC4CCCN(C)C4)cc3c21 (stereo not shown) [Example 558, 2-Methoxymethyl-8-(1-methylpiperidin-3-ylmethoxy)-1-propyl-1H-imidazo[4,5-c]quinolin-4-amine]
178 to 179 °C | CCCn1c(COCC)nc2c(N)nc3ccc(OCC4CCCO4)cc3c21 (stereo not shown) [Example 569, 2-(Ethoxymethyl)-1-propyl-8-(tetrahydrofuran-2-ylmethoxy)-1H-imidazo[4,5-c]quinolin-4-amine]
176 to 178 °C | CCCn1c(COCC)nc2c(N)nc3ccc(OC4CCNCC4)cc3c21 [Example 411, 2-(Ethoxymethyl)-8-(piperidin-4-yloxy)-1-propyl-1H-imidazo[4,5-c]quinolin-4-amine]
240 to 243.5 °C | CCCn1c(COCC)nc2c(N)nc3ccc(OC4CCN(S(C)(=O)=O)CC4)cc3c21 [Example 413, 2-(Ethoxymethyl)-8-{[1-(methylsulfonyl)piperidin-4-yl]oxy}-1-propyl-1H-imidazo[4,5-c]quinolin-4-amine]
160 to 162 °C | CCCn1c(COC)nc2c(N)nc3ccc(OCCN4CCCCC4)cc3c21 [Example 559, 2-Methoxymethyl-8-(2-piperidin-1-ylethoxy)-1-propyl-1H-imidazo[4,5-c]quinolin-4-amine]
190 to 192 °C | CCOCc1nc2c(N)nc3cc(OCCCCCCNC(C)=O)ccc3c2n1CC(C)(C)NC(C)=O [Example 50, N-(2-{7-[6-(Acetylamino)hexyloxy]-4-amino-2-ethoxymethyl-1H-imidazo[4,5-c]quinolin-1-yl}-1,1-dimethylethyl)acetamide]
165 to 166.5 °C | CCCn1c(CCOC)nc2c(N)nc3cc(OCCCN)ccc3c21 [Example 394, 7-(3-Aminopropoxy)-2-(2-methoxyethyl)-1-propyl-1H-imidazo[4,5-c]quinolin-4-amine]
195.5 to 197 °C | CCOCc1nc2c(N)nc3cc(OC4CCOC4)ccc3c2n1CCCCN1CCCS1(=O)=O (stereo not shown) [Example 401, 1-[4-(1,1-Dioxidoisothiazolidin-2-yl)butyl]-2-(ethoxymethyl)-7-(tetrahydrofuran-3-yloxy)-1H-imidazo[4,5-c]quinolin-4-amine]
213.7 to 215.7 °C | Cc1nc2c(N)nc3cc(OCCC4CCN(C(=O)NC5CCCCC5)CC4)ccc3c2n1CC(C)C [Example 403, 4-{2-[(4-Amino-1-isobutyl-2-methyl-1H-imidazo[4,5-c]quinolin-7-yl)oxy]ethyl}-N-cyclohexylpiperidine-1-carboxamide]

— US9856254B2, “Alkoxy substituted imidazoquinolines” (3M INNOVATIVE PROPERTIES COMPANY, priority 2003, dated 2018)
